This note sets out measurements from patent US10925921B2, “Fermented Pennisetum extract” (Sagittarius Life Science Corp., priority 2016, dated 2021).

Molecules are shown by their SMILES.

Type in all cases: in vivo, BALB/c nu/nu mice
Assay [1] deals with human lung adenocarcinoma cell line, NCl-H441. The assay is described as follows: Tumor growth assay in orthotopic lung model, IVIS bioluminescence. Conditions: docetaxel 2.5 mg/kg, from the fourth week. The protocol: FIGS. 3(A) and (B) show the inhibitory effect of PPE on tumor growth of orthotropic lung tumor-bearing BALB/c nude mice. H441-luc were orthotopically injected into the lung of mice at a concentration of 0.8×10^6 cells/70 μL PBS. PPE treatments (three dosages 25, 50, and […].) twice a week by intraperitoneal injection into tumor-bearing animals over a period of 4 weeks. (A) Representative non-invasive bioluminescence images show tumor progression of mice in orthtopic model. (B) Bar graphs were quantified by Living Image analysis software (n=8-10). Data were analyzed by Student's t-test and are shown as mean±SD*P<0.05 compared with control. § P<0.05 compared with week 4 tumor group;
Male BALB/c nu/nu mice were used in the orthotopic model and divided into five groups, control group (5 mice), tumor group (10 mice), three experimental groups (25-PPE, 50-PPE and 100-PPE) (each group for 10 mice) and docetaxel group (8 mice). […]
The mice were injected with the cell solution of human lung adenocarcinoma cell line, NCl-H441, in matrigel (0.8×10^6 cells/70 μL/mice). […] The tumor growth was monitored by Non Invasion In Vivo Imaging System (IVIS).

Assay [2] shares this test system. In words: Computed tomography (CT) lung screening assay in orthotopic model. Conditions: docetaxel 2.5 mg/kg, fourth week; tumor group 11.1+/−2.8%. The text has this: FIGS. 5(A) and (B) show the inhibitory effects of PPE on analysis of tumor volume in orthotopic model. (A) The micro-CT images and quantitative end-points for lung tumor growth. Longitudinal and transverse micro-CT images of tumor growth in control and treatment of PPE. Each tumor scanned by micro-CT was reconstructed to three-dimensional images (axial, sagittal, and coronal), and diameters measured periodically as indicated. Data represent presence of tumor value in each group. (B) The tissue of lung lesions in nude mice. Representative lung tumor formed in different group. Tumors observed in the lungs are indicated with a yellow arrow;
In the orthotopic model of Example 3, the mice were subjected to CT lung screening to detect the tumor size in lung at the fourth week. The tumor accounts for 11.1+/−2.8% of the lung in the tumor group, 10.1+/−3.9% in the 25-PPE group, 9.3+/−1.4% in the 50-PPE group, 7.5+/−2.3% in the 100-PPE group and 8.0+/−1.1% in the docetaxel group (see FIG. 5).

Assay [3] shares this test system. The assay is described as follows: Survival (Kaplan-Meier) in orthotopic lung tumor-bearing mice. To be noted: docetaxel 2.5 mg/kg b.w., orthotopic model. The method, then:
Male BALB/c nu/nu mice were used in the orthotopic model and divided into five groups, control group (5 mice), tumor group (10 mice), three experimental groups (25-PPE, 50-PPE and 100-PPE) (each group for 10 mice) and docetaxel group (8 mice). The mice of the control group and the tumor group were subjected to intraperitoneal injection (i.p.) with vehicle, while 10 mice of each of the experimental groups, 25-PPE group (25 mg/kg of PPE), 50-PPE group (50 mg/kg of PPE) and 100-PPE group (100 mg/kg of PPE), were i.p. administered with 25 mg/kg of PPE, 50 mg/kg of PPE and 100 mg/kg of PPE obtained in Example 1, respectively, and 8 mice of the docetaxel group were administered with 2.5 mg/kg of docetaxel.
The mice were injected with the cell solution of human lung adenocarcinoma cell line, NCl-H441, in matrigel (0.8×10^6 cells/70 μL/mice). Three days after injections, the PPEs at the above-mentioned doses were i.p. administered to the mice twice every two weeks. The tumor growth was monitored by Non Invasion In Vivo Imaging System (IVIS).

`CC(=O)O[C@@]12CO[C@@H]1C[C@H](O)[C@@]1(C)C(=O)[C@H](O)C3=C(C)[C@@H](OC(=O)[C@H](O)[C@@H](NC(=O)OC(C)(C)C)c4ccccc4)C[C@@](O)([C@@H](OC(=O)c4ccccc4)[C@H]21)C3(C)C` [docetaxel]: the “tumor bioluminescence (IVIS)” value in assay [1] is recorded as 0.5+/−0.07×10^7 photons/sec. Moreover, in assay [2], the “tumor share of the lung (CT tumor volume ratio)” value is 8.0+/−1.1%. Besides, the “lifespan, Kaplan-Meier cumulative survival analysis” value in assay [3] is given as “significant (p<0.05) increase in lifespan”.
